Source: US20190031613A1, “COMPOUNDS AND METHODS FOR THEIR USE IN THE TREATMENT OF MALARIA” (University of South Florida, priority 2016, published 2019)
“Also recorded” adds a separate entry of the source. Read-outs that look alike come from different tables or passages of the source.

Legend:
P. berghei = details: cited from earlier work; for PO dose, single exposure radical cure: lowest single-cure dose as reported
P. berghei-GFP parasites = assay: in vivo efficacy, modified Thompson test; set-up: species or system mice
Description: Prodrug 6d was orally tested for in vivo efficacy at four doses (0.3 mg/kg, 1.0 mg/kg, 3.0 mg/kg, and 10 mg/kg) in 0.5% aqueous HEC solution.

[1] = in vivo pharmacokinetics in mice (plasma, LC/MS-MS)
Description: Plasma exposure of prodrug 6e and parent compound 1b was determined following a single oral administration at 10 mg/kg and 3 mg/kg doses in 0.5% aqueous HEC (FIG. 5b).
Compounds 1b and its prodrug 6e were administered as a single dose (10 mg/kg) in 0.5% HEC using freshly prepared solution. Parent compound 1d and its prodrugs 6c and 6d were administered as a single dose of 50 mg/kg using the same vehicle. The blood was collected in prepared 5 ml syringe containing heparin via cardiac puncture and put into 15 mL conical tube on ice. Five mice were used per one time point at 0.5 h, 1 h, 2 h, 4 h, 8 h and 24 h […] plus 2 mice as a control (not-treated). The blood was then centrifuged for 5 min at 4000 rpm and plasma supernatant collected while avoiding the whole blood pellet at the bottom of the tube. The plasma was stored at −80° C. until the day of LC/MS-MS analysis.
Compound concentrations were quantitated in plasma samples by LC/MS-MS using an Agilent triple quadrupole instrument. Chromatographic separation was conducted using an Agilent HPLC with Phenomenex Kinetex C18 column (2.6 μm particle size, 50-4.6 mm i.d.) equipped with a Phenomenex Security Guard column. The mobile phase (1.25 mL/min) consisted of 0.05% formic acid in water and 0.05% formic acid in acetonitrile mixed using a linear gradient over 7 minutes. […] Plasma samples and calibration standards were prepared by protein precipitation with acetonitrile (3 parts acetonitrile to 1 part plasma), followed by centrifugation and analysis of the supernatant. Sample concentrations were determined by comparison to calibration standards prepared in blank plasma and assayed using the same conditions. The analytical lower limit of quantitation in plasma was typically 0.75-1.00 nM and accuracy, precision and recovery were within acceptable limits.
The plasma was first warmed up on ice for about 1 hour. Then 50 μL of plasma sample was precipitated with 150 μL of cold acetonitrile with internal standard (133 nM) P4Q-95^20) following by centrifugation at 4,000 rpm for 5 min at 4° C. and transfer˜150 μL of the supernatant to LCMS vial. The samples were analyzed using Agilent triple quadruple instrument in triplicates (5 mice×3 injections for each time point). The chemical structure of P4Q-95^20 is shown below:
The calibration curve for 1d was linear in 1 to 500 nM range so samples were diluted if needed to fit this linearity and then concentration recalculated accordingly. Calibration curve was run each time following the actual PK measurements and used for that particular compound.

[2] = aqueous stability and parent compound release by quantitative HPLC; details: for parent compound released: parent 1d
Description: The stability of prodrugs in aqueous media and the release of parent compound was followed for 10 h using HPLC in triplicates.
Compound stability was assessed using quantitative HPLC in buffers at different pHs (2, 4, 7), in a simulated gastric fluid (SGF) and in a simulated intestinal fluid (SIF).

[3] = 10 mg/kg PO, three daily doses days 3-5 PI, 0.5% aqueous HEC
[4] = 10 mg/kg PO, three daily doses days 3-5 PI, 0.5% aqueous HEC, untreated 13
[5] = 50 mg/kg PO, three daily doses days 3-5 PI, 0.5% aqueous HEC
[6] = oral dose 50.0 mg/kg, 0.5% aqueous HEC
[7] = single PO dose 0.01 mg/kg on day 3 PI
[8] = single PO dose 0.03 mg/kg on day 3 PI
[9] = single PO dose 0.1 mg/kg on day 3 PI
[10] = single PO dose 0.3 mg/kg on day 3 PI
[11] = single PO dose 3 mg/kg on day 3 PI
[12] = single PO dose 10 mg/kg on day 3 PI, 0.5% aqueous HEC
[13] = Table 3 control: 10 mg/kg PO, three daily doses days 3-5 PI
[14] = oral dose 3.0 mg/kg, 0.5% aqueous HEC
[15] = oral dose 100 mg/kg, 0.5% aqueous HEC

CS(=O)(=O)c1ccc(-c2cnc(N)c(-c3ccc(C(F)(F)F)nc3)c2)cc1 [MMV390048]
PO dose, single exposure radical cure (P. berghei): 30 mg/kg

CNCCOC(=O)OCOc1c(-c2ccccc2C)c(C)nc2cc(OC)c(Cl)cc12.Cl [6a, 6-Chloro-7-methoxy-2-methyl-3-(o-tolyl)-4-(((2-(methylammonio)ethoxycarbonyl)oxy)methoxy)quinoline, chloride salt]
Suppression [%] day 6 PI (P. berghei-GFP parasites; [3]): 71% | Day of death (avg) (P. berghei-GFP parasites; [4]): 16 | Day of death (avg) (P. berghei-GFP parasites; [5]): 13 | Suppression [%] day 6 PI (P. berghei-GFP parasites; [5]): 46%

CNCCOC(=O)OCOc1c(-c2ccc(C(F)(F)F)cc2)c(C)nc2cc(OC)c(Cl)cc12.Cl [6c, 6-Chloro-7-methoxy-2-methyl-3-(4-(triftuoromethyl)phenyl)-4-(((2-(methylammonio)ethoxycarbonyl)oxy)methoxy)quinoline, chloride salt]
Suppression [%] day 6 PI (P. berghei-GFP parasites; [3]): 75% | Day of death (avg) (P. berghei-GFP parasites; [4]): 13 | Day of death (avg) (P. berghei-GFP parasites; [5]): 16 | Suppression [%] day 6 PI (P. berghei-GFP parasites; [5]): 96% | AUC0→24 [1, 6]: 8031 µmol·min/L | CL [1, 6]: 11.6 mL·kg/min | Vd [1, 6]: 7.8 L/kg | t1/2 apparent [1, 6]: 7.7 h | tmax [1, 6]: 4 h | Cmax ([1]; read-out: Cmax [μmol/L], oral dose 50.0 mg/kg, 0.5% aqueous HEC, parent in plasma): 12 µmol/L | AUC of 1d improved vs dosing of 1d ([1]; single oral 50 mg/kg): 36 fold | maximum plasma concentration of 1d ([1]; single oral 50 mg/kg of prodrug, 0.5% aqueous HEC): 12 µM | parent compound released ([2]; in 1 h at pH 7.0): > 90% | parent compound released ([2]; in 10 h at pH 4.0): > 25%

COc1cc2[nH]c(C)c(-c3ccc(C(F)(F)F)cc3)c(=O)c2cc1Cl [1d, 6-chloro-7-methoxy-2-methyl-3-(4-(trifluoromethyl)phenyl)-4(1H)-quinolone, reference compound]
Suppression [%] day 6 PI (P. berghei-GFP parasites; [3]): 11% | Day of death (avg) (P. berghei-GFP parasites; [4]): 14 | Day of death (avg) (P. berghei-GFP parasites; [5]): 13 | Suppression [%] day 6 PI (P. berghei-GFP parasites; [5]): 10% | AUC0→24 ([1]; mouse, in vivo, po, 50 mg/kg): 222 µmol·min/L | CL ([1]; mouse, in vivo, po, 50 mg/kg): 609.7 mL·kg/min | Cmax ([1]; mouse, in vivo, po, 50 mg/kg): 0.36 µmol/L | Vd ([1]; mouse, in vivo, po, 50 mg/kg): 377.7 L/kg | maximum plasma concentration of 1d ([1]; mouse, in vivo, po, 50 mg/kg): 0.365 µM | t1/2 apparent ([1]; mouse, in vivo, po, 50 mg/kg): 7.15 h | time of maximum plasma concentration ([1]; mouse, in vivo, po, 50 mg/kg): 2 h | tmax ([1]; mouse, in vivo, po, 50 mg/kg): 2 h

c1cc([C@H]2CC[C@]3(CC2)OO[C@]2(O3)C3CC4CC(C3)CC2C4)ccc1OCCN1CCOCC1 [OZ439]
single oral dose that cures P. berghei-infected mice (P. berghei; clinical candidate, given in combination with ferroquine in trials): 20 mg/kg | PO dose, single exposure radical cure (P. berghei): 20 mg/kg

CNCCCOC(=O)OCOc1c(-c2ccc(Oc3ccc(OC(F)(F)F)cc3)cc2F)c(C)nc2cc(OC)c(Cl)cc12.Cl [6e, 6-Chloro-7-methoxy-2-methyl-3-(2-fluoro-4-(4-(trifluoromethoxy)phenoxy)phenyl)-4-(((3-(methylammonio)propyloxycarbonyl)oxy)methoxy)quinoline, chloride salt]
Day of death (avg) (P. berghei-GFP parasites; [7]): 13 | Suppression [%] day 6 PI (P. berghei-GFP parasites; [7]): <1% | Day of death (avg) (P. berghei-GFP parasites; [8]): 13 | Suppression [%] day 6 PI (P. berghei-GFP parasites; [8]): <1% | Day of death (avg) (P. berghei-GFP parasites; [9]): 13 | Suppression [%] day 6 PI (P. berghei-GFP parasites; [9]): < 1% | Day of death (avg) (P. berghei-GFP parasites; [10]): 13 | Suppression [%] day 6 PI (P. berghei-GFP parasites; [10]): 57% | average suppression of parasitemia on day 13 (P. berghei-GFP parasites; single PO dose 1 mg/kg): 90% | Suppression [%] day 6 PI (P. berghei-GFP parasites; single PO dose 1 mg/kg on day 3 PI): 97% | Day of death (avg) (P. berghei-GFP parasites; single PO dose 1 mg/kg on day 3 PI, 1 mg/kg): 21 | Day of death (avg) (P. berghei-GFP parasites; [11]): curative | Suppression [%] day 6 PI (P. berghei-GFP parasites; [11]): > 99% | Day of death (avg) (P. berghei-GFP parasites; [12]): curative | Suppression [%] day 6 PI (P. berghei-GFP parasites; [12]): > 99% | oral dose producing single dose cures (P. berghei-GFP parasites; single oral dose, no advanced formulation): 3 mg/kg | clearance ([1]; mouse, in vivo, po): low clearance | half-life ([1]; mouse, in vivo, po): ≥ 10 h | improvement in AUC vs parent ([1]; mouse, in vivo, po): 21 fold | improvement of Cmax vs parent ([1]; mouse, in vivo, po): 18 fold | AUC0→24 ([1]; mouse, in vivo, po, 3 mg/kg): 4818 µmol·min/L | Vd ([1]; mouse, in vivo, po, 3 mg/kg): 0.8 L/kg | tmax ([1]; mouse, in vivo, po, 3 mg/kg): 2 h | AUC0→24 ([1]; mouse, in vivo, po, 10 mg/kg): 10269 µmol·min/L | CL ([1]; mouse, in vivo, po, 10 mg/kg): 1.4 mL·kg/min | Cmax ([1]; mouse, in vivo, po, 10 mg/kg): 9.1 µmol/L | Vd ([1]; mouse, in vivo, po, 10 mg/kg): 1.6 L/kg | t1/2 apparent ([1]; mouse, in vivo, po, 10 mg/kg): 13.1 h | tmax ([1]; mouse, in vivo, po, 10 mg/kg): 4 h

CCN(CC)Cc1cc(Nc2ccnc3cc(Cl)ccc23)ccc1O [ADQ, reference compound]
Suppression [%] day 6 PI (P. berghei-GFP parasites; [3]): >99% | Day of death (avg) (P. berghei-GFP parasites; [4]): 21 | Day of death (avg) (P. berghei-GFP parasites; [13]): 21 | Suppression [%] day 6 PI (P. berghei-GFP parasites; [13]): >99%

COc1cc2[nH]c(C)c(-c3ccc(Oc4ccc(OC(F)(F)F)cc4)cc3F)c(=O)c2cc1Cl [1b, 6-chloro-3-(2-fluoro-4-(4-(tfifluoromethoxy)phenoxy)phenyl)-7-methoxy-2-methyl-4(1H)-quinolone, reference compound]
Day of death (avg) (P. berghei-GFP parasites; [12]): 13 | Suppression [%] day 6 PI (P. berghei-GFP parasites; [12]): <1% | in vivo activity (P. berghei-GFP parasites; single dose of 10 mg/kg PO, 0.5% aqueous HEC): completely inactive | AUC0→24 [1, 14]: 228 µmol·min/L | CL [1, 14]: 26.6 mL·kg/min | Vd [1, 14]: 19.6 L/kg | t1/2 apparent [1, 14]: 8.5 h | tmax [1, 14]: 4 h | AUC0→24 [1, 15]: 580 µmol·min/L | CL [1, 15]: 34.9 mL·kg/min | Vd [1, 15]: 44 L/kg | t1/2 apparent [1, 15]: 14.5 h | tmax [1, 15]: 8 h | Cmax ([1]; read-out: Cmax [μmol/L], oral dose 3.0 mg/kg, 0.5% aqueous HEC, parent in plasma): 0.31 µmol/L | Cmax ([1]; read-out: Cmax [μmol/L], oral dose 100 mg/kg, 0.5% aqueous HEC): 0.46 µmol/L | Cmax ([1]; single oral 3 mg/kg, 0.5% aqueous HEC): 0.31 µmol/L

C[C@H]1Cc2c([nH]c3cc(Cl)c(F)cc23)[C@@]2(N1)C(=O)Nc1ccc(Cl)cc12 [KAE609]
PO dose, single exposure radical cure (P. berghei): 100 mg/kg

CNCCCOC(=O)OCOc1c(-c2ccc(C(F)(F)F)cc2)c(C)nc2cc(OC)c(Cl)cc12.Cl [6d, 6-Chloro-7-methoxy-2-methyl-3-(4-(trifluoromethyl)phenyl)-4-(((3-(methylammonio)propyloxycarbonyl)oxy)methoxy)quinoline, chloride salt]
Suppression [%] day 6 PI (P. berghei-GFP parasites; [3]): 82% | Day of death (avg) (P. berghei-GFP parasites; [4]): 13 | Day of death (avg) (P. berghei-GFP parasites; [5]): 14 | Suppression [%] day 6 PI (P. berghei-GFP parasites; [5]): 96% | life span of treated animals relative to untreated controls (P. berghei-GFP parasites; 10 and 50 mg/kg PO): do not significantly extend the life span | AUC0→24 ([1]; mouse, in vivo, po, 50 mg/kg): 11664 µmol·min/L | AUC of 1d improved vs dosing of 1d ([1]; mouse, in vivo, po, 50 mg/kg): 52 fold | CL ([1]; mouse, in vivo, po, 50 mg/kg): 7.8 mL·kg/min | Cmax ([1]; mouse, in vivo, po, 50 mg/kg): 21.2 µmol/L | Vd ([1]; mouse, in vivo, po, 50 mg/kg): 4.3 L/kg | t1/2 apparent ([1]; mouse, in vivo, po, 50 mg/kg): 6.4 h | tmax ([1]; mouse, in vivo, po, 50 mg/kg): 1 h | aqueous stability ([2]; buffers pH 2, 4, 7, SGF, SIF): stable at low pH values; also recorded: more stable than 6c | parent compound released ([2]; in 5 h at pH 7.0): > 55%
